Measurements as given in patent US10954269B2, “Anti-inflammatory tripeptides” (Dr. August Wolff Gmbh & Co. KG Arzneimittel, priority 2013, dated 2021).
[ ]: non-standard residue; d: D form. Aib = CC(C)(N)C(=O)O

What was measured:
[1] = tested on: human keratinocyte cell line (HaCaT); assay: Cytokine secretion on protein level in activated human keratinocyte cell line HaCaT (13-plex FACS / Luminex, supernatant); format: cell-based; conditions: for IL-1 cytokine concentration / IL-2 cytokine concentration / IL-4 cytokine concentration / IL-5 cytokine concentration / IL-6 cytokine concentration / IL-9 cytokine concentration / IL-10 cytokine concentration / IL-12p70 cytokine concentration / IL-13 cytokine concentration / IL-17 cytokine concentration / IL-22 cytokine concentration / TNF-α cytokine concentration / IFN-γ cytokine concentration: substance 10^−9M
In short: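 Cytokine protein in supernatant is read by multiplex FACS or Luminex. Tripeptide-treated HaCaT cells or blood-derived human T-cells are stimulated beforehand with PMA/Ionomycin or IFN-γ. The most relevant analytes are IL-1, IL-2, IL-6, IL-12p70, IL-17, IFN-γ and TNF-α, sampled 48 h and 72 h after stimulation.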

[2] = tested on: human keratinocytes (HaCaT); assay: Gene expression of pro-inflammatory cytokines (RT-qPCR) in human keratinocytes (HaCaT); format: cell-based; conditions: HaCaT keratinocytes; RT-qPCR
Text: Cells were activated with PMA/Ionomycin and treated with PBS, α-MSH, K(D)PT and Examples 3, 8 and 9, respectively, at a concentration of 10^−9 M. Values are normalized to β-actin and are shown relative to the gene expression in PBS-stimulated cells.
Primary T-cells were isolated from peripheral blood from healthy volunteers and from secondary lymphatic organs from naïve C57BL/6 mice, respectively. The cells were stimulated with phorbol-12-myristate-13-acetate (PMA)/Ionomycin and interferon-gamma (IFN-γ), respectively, for 48 h to activate the cells. The activated cells release pro-inflammatory cytokines. In parallel a human (HaCaT) keratinocyte cell line was activated with PMA/Ionomycin and IFN-γ, respectively, too. […] At the same time release of anti-inflammatory IL-10 was inhibited. Two days after addition of PMA/Ionomycin and IFN-γ, respectively, the induction of IL-1 secretion was determined in the supernatant for proving that the cells are activated. […] The anti-inflammatory properties of the tripeptides were determined 48 h and 72 h following stimulation. A 13-plex-system based FACS analysis was used for showing the reduced secretion of pro-inflammatory cytokines in the supernatant. Data for IL-1, IL-2, IL-6, IL-12p70 IL-17, IFN-γ and TNF-α are considered to be most relevant. Thus, analysis of the anti-inflammatory properties of the tripeptides is preferably based on the results obtained for these analytes. […] Using this method the gene expression of pro-inflammatory markers like IL-6, IL-17, IFN-γ and TNF-α was determined.
In a third experiment murine and human T cells and HaCaT cells were stimulated with PMA/Ionomycin and treated with Examples 14, 15, 16 and 17 at 10^−7 M, 10^−9 M and 10^−11 M. Cytokine concentrations (IFN-γ, IL-17 and IL-10 for T cells and IFN-γ for HaCat) were assessed in the supernatants using the Luminex technology. Expression of genes coding for Il-1β, IL-6 and TNF-α was determined. […] Moreover, concentrations of pro-inflammatory cytokines IFN-γ and IL-17 was reduced in the supernatants whereas the concentration of anti-inflammatory cytokine IL-10 was increased.

C57BL/6 mice = assay: Vasculitis model in mice (LPS / TNF-α intradermal); format: in vivo; conditions: s.c.
Procedure: C57BL/6 mice receive an intradermal injection of LPS. On the following day vasculitis is induced by intradermal injection of TNF-α. In addition Evan's blue is injected. 24 hours following the injection of TNF-α mice are scarified. Ear thickness is measured and the degree of vasculitis is assessed by counting petechiae. The content of Evan's blue in the ear tissue is a marker for vascular permeability. Ears are analyzed by histology, FACS and RT-qPCR. […] In histology a reduced inflammatory infiltrate was seen.

Balb/c mice = assay: Imiquimod-induced psoriasis in mice; format: in vivo; conditions: i.v.
Procedure: Psoriasis in Balb/c mice is induced by daily application of topical Imiquimod for 8 days. Animal are treated with the test items (topical or systemically). On day 9 the skin phenotype is characterized using a clinical score system (0=normal mouse skin; 1=mild reddening; 2=erythema; 3=erythema, swelling; 4=erythema, swelling, scaling; 5=erythema, swelling, scaling, (bloody) lesions). Skin is analyzed histologically. Lymph nodes are analyzed by flow cytometry and RT-qPCR. mRNA expression in lesional skin is analyzed by RT-qPCR. Cytokine concentrations in the serum are assessed using the Luminex technology.

[3] = HaCaT stimulated with PMA/Ionomycin

With H-Phe-Pro-[Aib]-OH [Example 13] the IL-1 cytokine concentration ([1]; HaCaT stimulated with IFN-γ) was 0 pg/mL, the IL-2 cytokine concentration ([1]; HaCaT stimulated with IFN-γ) was 0 pg/mL and the IL-4 cytokine concentration ([1]; HaCaT stimulated with IFN-γ) was 76.13 pg/mL. For the same substance, the IL-5 cytokine concentration ([1]; HaCaT stimulated with IFN-γ) was 0 pg/mL, the IL-6 cytokine concentration ([1]; HaCaT stimulated with IFN-γ) was 255.5 pg/mL and the IL-9 cytokine concentration ([1]; HaCaT stimulated with IFN-γ) was 0 pg/mL. The IL-10 cytokine concentration ([1]; HaCaT stimulated with IFN-γ) was 7.59 pg/mL, the IL-12p70 cytokine concentration ([1]; HaCaT stimulated with IFN-γ) was 0 pg/mL and the IL-13 cytokine concentration ([1]; HaCaT stimulated with IFN-γ) was 0 pg/mL. For the same substance, the IL-17 cytokine concentration ([1]; HaCaT stimulated with IFN-γ) was 34.2 pg/mL, the IL-22 cytokine concentration ([1]; HaCaT stimulated with IFN-γ) was 0 pg/mL and the TNF-α cytokine concentration ([1]; HaCaT stimulated with IFN-γ) was 0 pg/mL. It also gave an IFN-γ cytokine concentration ([1]; HaCaT stimulated with PBS) of 0 pg/mL, an IL-1 cytokine concentration ([1]; HaCaT stimulated with PBS) of 17.16 pg/mL and an IL-2 cytokine concentration ([1]; HaCaT stimulated with PBS) of 14.24 pg/mL. The IL-4 cytokine concentration ([1]; HaCaT stimulated with PBS) was 132.37 pg/mL, the IL-5 cytokine concentration ([1]; HaCaT stimulated with PBS) was 0 pg/mL and the IL-6 cytokine concentration ([1]; HaCaT stimulated with PBS) was 74.11 pg/mL. For the same substance, the IL-9 cytokine concentration ([1]; HaCaT stimulated with PBS) was 0 pg/mL, the IL-10 cytokine concentration ([1]; HaCaT stimulated with PBS) was 74.67 pg/mL and the IL-12p70 cytokine concentration ([1]; HaCaT stimulated with PBS) was 0 pg/mL. It also gave an IL-13 cytokine concentration ([1]; HaCaT stimulated with PBS) of 1948.04 pg/mL, an IL-17 cytokine concentration ([1]; HaCaT stimulated with PBS) of 0 pg/mL and an IL-22 cytokine concentration ([1]; HaCaT stimulated with PBS) of 0 pg/mL. The TNF-α cytokine concentration ([1]; HaCaT stimulated with PBS) was 6.94 pg/mL, the IFN-γ cytokine concentration [1, 3] was 0 pg/mL and the IL-1 cytokine concentration [1, 3] was 0 pg/mL. It also gave an IL-2 cytokine concentration [1, 3] of 0 pg/mL, an IL-4 cytokine concentration [1, 3] of 91.99 pg/mL and an IL-5 cytokine concentration [1, 3] of 0 pg/mL. The IL-6 cytokine concentration [1, 3] was 216.69 pg/mL, the IL-9 cytokine concentration [1, 3] was 0 pg/mL and the IL-10 cytokine concentration [1, 3] was 41.86 pg/mL. It also gave an IL-12p70 cytokine concentration [1, 3] of 0 pg/mL, an IL-13 cytokine concentration [1, 3] of 0 pg/mL and an IL-17 cytokine concentration [1, 3] of 21.33 pg/mL. The IL-22 cytokine concentration [1, 3] was 0 pg/mL, the TNF-α cytokine concentration [1, 3] was 0 pg/mL and the “secretion / expression of pro-inflammatory cytokines (supernatant)” value ([1]; activated human keratinocytes) was “decreased expression”. For the same substance, the “gene expression of pro-inflammatory cytokines” value [2] was “reduced expression”, the ear thickness (C57BL/6 mice) was “reduction” and the “inflammatory infiltrate in histology” value (C57BL/6 mice) was “reduced”. The number of petechiae (C57BL/6 mice) was “reduced number”, the “concentrations of TNF-α and IL-17 in the serum” value (Balb/c mice) was “reduced” and the “mRNA expression of IL-17, IFN-γ, IL-23, IL-36 and IL-22 in lesional skin” value (Balb/c mice) was “reduced”. For the same substance, the “size of the rete ridges” value (Balb/c mice; compared to vehicle control) was “decreased” and the clinical score (Balb/c mice; day 9) was “reduced”.
